In patent publication US9526785B2, “Pharmaceuticals for oral delivery” (Enteris BioPharma, Inc., priority 2013, dated 2016):
Read-outs that look alike come from different tables or passages of the source.

Experiments:
[1] = Tigecycline plasma PK after IV bolus in dogs; type: in vivo, Beagle dogs; conditions: female, beagle, dog, plasma; for AUC(0-t) / Cmax: iv
Procedure: Adult beagle dogs weighing approximately 9 to 15 kg were used in the study. […] Room temperature was set to be maintained between approximately 20±5° C. Relative humidity was monitored but not controlled.
TEKLAD™ Certified Canine Diet was provided once daily in amounts (˜400 grams) appropriate for the size and age of the animals. Tap water was available ad libitum via automatic watering device or water bowls.
Doses are expressed in terms of free net tigecycline content. […] Oral dosing of enteric-coated capsules was accomplished by administering them to the back of the dog's mouth, followed by a chase of 5 mL water to ensure swallowing.
Water was provided ad libitum. […] Subsequently, each group of animals was dosed based on the protocol, i.e. either IV, or PO by capsule.
Minocycline (VWR international) was used as an internal standard. Sample processing/clean-up of plasma samples was carried out offline by protein precipitation with acidified acetonitrile using 0.5% trifluoroacetic acid (TFA).
The HPLC system consisted of Shimadzu SIL-HTc HPLC system equipped with dual Shimadzu LC-10ADvp isopumps, a Shimadzu CTO-10ASvp column temperature controller and a Shimadzu SPD-10Avp variable wavelength detector. […] Mobile phase A consisted of 23 mM phosphate buffer pH 2.5 with 4 mM 1-octanesulfonic acid, while mobile phase B consisting of 90% acetonitrile, 10% water, with 2 mM 1-octanesulfonic acid. […] The total runtime was 18 minutes per sample. The mobile phase flow rate was 1.2 mL/min. Detection was performed using the SPD-10Avp variable wavelength detector set at 350 nm, with a sensitivity of 0.001 aufs.
The samples were then centrifuged under refrigeration at 13 k rpm for 5 minutes. The supernatant was taken and the liquid removed to dryness under nitrogen in a turbovap. The dried extract was reconstituted in 60 μL of mobile phase A and the suspension was further centrifuged at 5 k rpm for 5 minutes to pellet any insoluble matter. The resulting supernatant was then injected onto the LC.
The unknown concentration in dog plasma samples was determined by interpolation of the peak area ratios of analyte:internal standard versus the ratio of their nominal concentrations into the regression line obtained from calibration standards spiked in pooled dog plasma. No regression weighting was used for the calculations. […] The calibration curve covered the range of 0.05 μg/mL to 5 μg/mL.
It should be noted however, that when the method was transferred to an older HPLC system (equipped with a Shimadzu SCT-10Avp system controller and SIL-10A autoinjector), the time program was further altered such that the gradient went to 38% mobile phase B to account to system design changes. All other parameters remained unchanged.
Tigecycline PK parameters for individual dogs were calculated using non-compartmental analysis with PK Functions for Microsoft Excel.

[2] = cited from earlier work
[3] = intravenous, 1 mg, Tigecycline Plasma Concentration, 1 mg IV in PBS (0.08 mg/kg), SC427, mean
[4] = intravenous, 5 mg, Tigecycline Plasma Concentration, 5 mg IV in PBS ([…]), SC431, individual dogs
[5] = intravenous, 5 mg, Tigecycline Plasma Concentration, 5 mg IV in PBS ([…]), SC431, mean

Structure (SMILES): CN(C)c1cc(NC(=O)CNC(C)(C)C)c(O)c2c1C[C@H]1C[C@H]3[C@H](N(C)C)C(O)=C(C(N)=O)C(=O)[C@@]3(O)C(O)=C1C2=O [Tigecycline]
- concentration at 120 min [1, 3]: 11.1 ng/mL
- concentration at 360 min [1, 3]: 1.15 ng/mL
- concentration at 5 min [1, 4]: 336 ng/mL
- concentration at 5 min [1, 5]: 335 ng/mL
- concentration at 10 min [1, 4]: 198 ng/mL
- concentration at 10 min [1, 5]: 163 ng/mL
- concentration at 15 min [1, 4]: 122 ng/mL
- concentration at 15 min [1, 5]: 111 ng/mL
- concentration at 20 min [1, 4]: 117 ng/mL
- concentration at 20 min [1, 5]: 94.4 ng/mL
- concentration at 30 min ([1]; intravenous, 5 mg, Tigecycline Plasma Concentration, 30 min, 5 mg IV in PBS ([…]), SC431, mean): 76.2 ng/mL
- concentration at 40 min [1, 4]: 72 ng/mL
- concentration at 40 min [1, 5]: 60.5 ng/mL
- concentration at 60 min ([1]; intravenous, 5 mg, Tigecycline Plasma Concentration, 60 min, 5 mg IV in PBS ([…]), SC431, mean): 49.1 ng/mL
- concentration at 90 min [1, 4]: 59.9 ng/mL
- concentration at 90 min [1, 5]: 47.4 ng/mL
- concentration at 120 min [1, 5]: 42.3 ng/mL
- concentration at 360 min [1, 5]: 16.5 ng/mL
- AUC(0-t) ([1]; 0.08 mg/kg, 1 mg IV in PBS (0.08 mg/kg), SC427, individual dogs, read-out: AUC(0-t)): 56.2 ng·h/mL
- Cmax ([1]; 0.08 mg/kg, 1 mg IV in PBS (0.08 mg/kg), SC427, individual dogs, read-out: Cmax): 86 ng/mL
- AUC(0-t) ([1]; 0.08 mg/kg, 1 mg IV in PBS (0.08 mg/kg), SC427, mean, read-out: AUC(0-t)): 72.4 ng·h/mL
- Cmax ([1]; 0.08 mg/kg, 1 mg IV in PBS (0.08 mg/kg), SC427, mean, read-out: Cmax): 79.1 ng/mL
- AUC(0-t) ([1]; 0.08 mg/kg, IV bolus 1 mg (0.08 mg/kg), SC427, read-out: AUC(0-t), mean): 72.4 ng·h/mL
- Cmax ([1]; 0.08 mg/kg, IV bolus 1 mg (0.08 mg/kg), SC427, read-out: Cmax, mean): 79.1 ng/mL
- AUC(0-t) ([1]; 0.08 mg/kg, IV, Study 1 (SC427), 1 mg (0.08 mg/kg), mean (% CV), read-out: AUC(0-t)): 72.4 ng·h/mL
- Cmax ([1]; 0.08 mg/kg, IV, Study 1 (SC427), 1 mg (0.08 mg/kg), mean (% CV), read-out: Cmax): 79.1 ng/mL
- Cmax ([1]; […], 5 mg IV in PBS ([…]), SC431, individual dogs, read-out: Cmax): 336 ng/mL
- AUC(0-t) ([1]; […], 5 mg IV in PBS ([…]), SC431, mean, read-out: AUC(0-t)): 411 ng·h/mL
- Cmax ([1]; […], 5 mg IV in PBS ([…]), SC431, mean, read-out: Cmax): 335 ng/mL
- AUC(0-t) ([1]; […], IV bolus 5 mg ([…]), SC431, read-out: AUC(0-t), mean): 411 ng·h/mL
- Cmax ([1]; […], IV bolus 5 mg ([…]), SC431, read-out: Cmax, mean): 335 ng/mL
- AUC(0-t) ([1]; […], IV, Study 2 (SC431), 5 mg ([…]), mean (% CV), read-out: AUC(0-t)): 411 ng·h/mL
- Cmax ([1]; […], IV, Study 2 (SC431), 5 mg ([…]), mean (% CV), read-out: Cmax): 335 ng/mL
- Tmax ([1]; IV bolus 1 mg (0.08 mg/kg), SC427, read-out: Tmax, mean (converted)): 5 min
- Tmax ([1]; IV bolus 5 mg (0.42 mg/kg), SC431, read-out: Tmax (converted)): 5 min
- aqueous solubility [2]: approximately 300 mg/mL
